Test results taken from patent US12404295B2, “(Hetero)aryl-methyl-thio-beta-D-galactopyranoside derivatives” (Idorsia Pharmaceuticals Ltd, priority 2019, dated 2025).
Read-outs that look alike come from different tables or passages of the source.

Experiments:
human Gal-1 (hGal-1) = human Gal-1 (hGal-1) (Homo sapiens (Human), UniProt P09382); assay: competitive binding assay: biotinylated hGal-1 binding to microplate-adsorbed asialofetuin (ASF); details: Table 15; read-out: IC50 (Galectin-1 inhibition)
Chain of human Gal-1 (hGal-1) (P09382 whole entry): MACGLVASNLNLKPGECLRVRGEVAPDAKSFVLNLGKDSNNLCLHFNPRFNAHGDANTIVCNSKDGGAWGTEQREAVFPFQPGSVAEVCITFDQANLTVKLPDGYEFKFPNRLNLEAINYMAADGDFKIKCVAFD
Procedure, shortened: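 Spectrophotometric competition readout: after compound and biotinylated hGal-1 (300-1000 ng/mL) sit 3 h at 4° C on adsorbed asialofetuin, streptavidin-peroxidase (1 h, 4° C) and ABTS reveal residual binding. Reported IC50 values are means of repeat runs.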

human Gal-3 (hGal-3) = human Gal-3 (hGal-3) (Homo sapiens (Human), UniProt P17931); assay: competitive binding assay: biotinylated hGal-3 binding to microplate-adsorbed asialofetuin (ASF)
Chain of human Gal-3 (hGal-3) (P17931 whole entry): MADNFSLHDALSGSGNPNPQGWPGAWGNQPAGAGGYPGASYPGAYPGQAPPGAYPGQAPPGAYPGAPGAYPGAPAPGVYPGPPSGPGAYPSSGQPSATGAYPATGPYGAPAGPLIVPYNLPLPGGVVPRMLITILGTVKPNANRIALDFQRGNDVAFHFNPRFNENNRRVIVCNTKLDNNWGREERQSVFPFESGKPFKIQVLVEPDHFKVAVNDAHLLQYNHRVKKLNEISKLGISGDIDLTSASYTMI
Procedure, shortened: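 Serially diluted compounds compete with biotinylated hGal-3 binding to adsorbed asialofetuin (3 hours, 4° C). After washing, streptavidin-peroxidase at 80 ng/mL for 1 hour at 4° C, with ABTS colour read-out. IC50 values are averaged over repeated runs.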

[1] = Gal-3 inhibition, binding of biotinylated hGal-3 to ASF, mean values, read-out: IC50
[2] = Table 10, 2-OMe-Gal inhibitors, read-out: IC50 (Gal-3 inhibition)
[3] = Table 9, 2-OMe-Gal inhibitors, read-out: IC50 (Gal-3 inhibition)

| IC50 (human Gal-1 (hGal-1)) | IC50 (human Gal-3 (hGal-3); [1]) | IC50 (human Gal-3 (hGal-3); [2]) | IC50 (human Gal-3 (hGal-3); [3]) | Structure (SMILES) |
| --- | --- | --- | --- | --- |
| 4700 nM | 2270 nM |  |  | CC(C)c1cccnc1[C@H](S[C@@H]1O[C@H](CO)[C@H](O)[C@H](n2cc(-c3cc(F)c(F)c(F)c3)nn2)[C@H]1O)C1(O)CCC(F)(F)CC1 [Example 2.44.132S., (2S,3R,4S,5R,6R)-2-(((S)-(4,4-Difluoro-1-hydroxycyclohexyl)(3-isopropylpyridin-2-yl)methyl)thio)-6-(hydroxymethyl)-4-(4-(3,4,5-trifluorophenyl)-1H-1,2,3-triazol-1-yl)tetrahydro-2H-pyran-3,5-diol] |
| 1220 nM |  | 170 nM |  | CO[C@@H]1[C@@H](n2cc(-c3cc(F)c(F)c(F)c3)nn2)[C@@H](O)[C@@H](CO)O[C@H]1SC(c1nccnc1Cl)C1(O)CCC(F)(F)CC1 (stereo partly drawn) [Example 2.44.133.I., (2R,3R,4S,5R,6S)-6-(((3-Chloropyrazin-2-yl)(4,4-difluoro-1-hydroxycyclohexyl)methyl)thio)-2-(hydroxymethyl)-5-methoxy-4-(4-(3,4,5-trifluorophenyl)-1H-1,2,3-triazol-1-yl)tetrahydro-2H-pyran-3-ol] |
| 660 nM |  | 40 nM |  | CO[C@@H]1[C@@H](n2cc(-c3cc(F)c(F)c(F)c3)nn2)[C@@H](O)[C@@H](CO)O[C@H]1S[C@H](c1nccnc1Cl)C1(O)CCC(F)(F)CC1 [Example 2.44.133R.I., (2R,3R,4S,5R,6S)-6-(((R)-(3-Chloropyrazin-2-yl)(4,4-difluoro-1-hydroxycyclohexyl)methyl)thio)-2-(hydroxymethyl)-5-methoxy-4-(4-(3,4,5-trifluorophenyl)-1H-1,2,3-triazol-1-yl)tetrahydro-2H-pyran-3-ol [1,3-di-deoxy-1-((4,4-difluoro-1-hydroxy-cyclohexan-1-yl)-(3-(-chloro)pyrazin-2-yl)methyl-(R)-thio)-2-O-methyl-3-[4-(3,4,5-trifluorophenyl)-1H-1,2,3-triazol-1-yl]-b-D-galactopyranoside]] |
| 7540 nM |  | 2710 nM |  | CO[C@@H]1[C@@H](n2cc(-c3cc(F)c(F)c(F)c3)nn2)[C@@H](O)[C@@H](CO)O[C@H]1S[C@@H](c1nccnc1Cl)C1(O)CCC(F)(F)CC1 [Example 2.44.133S.I., (2R,3R,4S,5R,6S)-6-(((S)-(3-Chloropyrazin-2-yl)(4,4-difluoro-1-hydroxycyclohexyl)methyl)thio)-2-(hydroxymethyl)-5-methoxy-4-(4-(3,4,5-trifluorophenyl)-1H-1,2,3-triazol-1-yl)tetrahydro-2H-pyran-3-ol] |
| 140 nM | 70 nM |  |  | OC[C@H]1O[C@@H](SC(c2ncccc2C2CC2)C2(O)CCC(F)(F)CC2)[C@H](O)[C@@H](n2cc(-c3cc(F)c(F)c(F)c3)nn2)[C@H]1O (stereo partly drawn) [Example 2.44.134., (2S,3R,4S,5R,6R)-2-(((3-Cyclopropylpyridin-2-yl)(4,4-difluoro-1-hydroxycyclohexyl)methyl)thio)-6-(hydroxymethyl)-4-(4-(3,4,5-trifluorophenyl)-1H-1,2,3-triazol-1-yl)tetrahydro-2H-pyran-3,5-diol] |
| 50 nM | 10 nM |  |  | OC[C@H]1O[C@@H](S[C@H](c2ncccc2C2CC2)C2(O)CCC(F)(F)CC2)[C@H](O)[C@@H](n2cc(-c3cc(F)c(F)c(F)c3)nn2)[C@H]1O [Example 2.44.134R., (2S,3R,4S,5R,6R)-2-(((R)-(3-Cyclopropylpyridin-2-yl)(4,4-difluoro-1-hydroxycyclohexyl)methyl)thio)-6-(hydroxymethyl)-4-(4-(3,4,5-trifluorophenyl)-1H-1,2,3-triazol-1-yl)tetrahydro-2H-pyran-3,5-diol] |
| 110 nM |  |  | 60 nM | CO[C@@H]1[C@@H](n2cc(-c3cc(F)c(F)c(F)c3)nn2)[C@@H](O)[C@@H](CO)O[C@H]1S[C@H](c1ncccc1C1CC1)C1(O)CCC(F)(F)CC1 [Example 2.44.134R.I., (2R,3R,4S,5R,6S)-6-(((R)-(3-Cyclopropylpyridin-2-yl)(4,4-difluoro-1-hydroxycyclohexyl)methyl)thio)-2-(hydroxymethyl)-5-methoxy-4-(4-(3,4,5-trifluorophenyl)-1H-1,2,3-triazol-1-yl)tetrahydro-2H-pyran-3-ol [1,3-di-deoxy-1-((4,4-difluoro-1-hydroxy-cyclohexan-1-yl)-(3-(-cyclopropyl)pyridin-2-yl)methyl-(R)-thio)-2-O-methyl-3-[4-(3,4,5-trifluorophenyl)-1H-1,2,3-triazol-1-yl]-b-D-galactopyranoside]] |
| 2700 nM | 700 nM |  |  | OC[C@H]1O[C@@H](S[C@@H](c2ncccc2C2CC2)C2(O)CCC(F)(F)CC2)[C@H](O)[C@@H](n2cc(-c3cc(F)c(F)c(F)c3)nn2)[C@H]1O [Example 2.44.134S., (2S,3R,4S,5R,6R)-2-(((S)-(3-Cyclopropylpyridin-2-yl)(4,4-difluoro-1-hydroxycyclohexyl)methyl)thio)-6-(hydroxymethyl)-4-(4-(3,4,5-trifluorophenyl)-1H-1,2,3-triazol-1-yl)tetrahydro-2H-pyran-3,5-diol] |
| 450 nM | 70 nM |  |  | Cc1ccnnc1C(S[C@@H]1O[C@H](CO)[C@H](O)[C@H](n2cc(-c3cc(F)c(F)c(F)c3)nn2)[C@H]1O)C1(O)CCC(F)(F)CC1 (stereo partly drawn) [Example 2.44.135., (2S,3R,4S,5R,6R)-2-(((4,4-Difluoro-1-hydroxycyclohexyl)(4-methylpyridazin-3-yl)methyl)thio)-6-(hydroxymethyl)-4-(4-(3,4,5-trifluorophenyl)-1H-1,2,3-triazol-1-yl)tetrahydro-2H-pyran-3,5-diol] |
| 220 nM | 40 nM |  |  | Cc1ccnnc1[C@@H](S[C@@H]1O[C@H](CO)[C@H](O)[C@H](n2cc(-c3cc(F)c(F)c(F)c3)nn2)[C@H]1O)C1(O)CCC(F)(F)CC1 [Example 2.44.135R., (2S,3R,4S,5R,6R)-2-(((R)-(4,4-Difluoro-1-hydroxycyclohexyl)(4-methylpyridazin-3-yl)methyl)thio)-6-(hydroxymethyl)-4-(4-(3,4,5-trifluorophenyl)-1H-1,2,3-triazol-1-yl)tetrahydro-2H-pyran-3,5-diol] |
| 200 nM |  |  | 70 nM | CO[C@@H]1[C@@H](n2cc(-c3cc(F)c(F)c(F)c3)nn2)[C@@H](O)[C@@H](CO)O[C@H]1S[C@H](c1nnccc1C)C1(O)CCC(F)(F)CC1 [Example 2.44.135R.I., (2R,3R,4S,5R,6S)-6-(((R)-(4,4-Difluoro-1-hydroxycyclohexyl)(4-methylpyridazin-3-yl)methyl)thio)-2-(hydroxymethyl)-5-methoxy-4-(4-(3,4,5-trifluorophenyl)-1H-1,2,3-triazol-1-yl)tetrahydro-2H-pyran-3-ol] |
| 5430 nM | 2790 nM |  |  | Cc1ccnnc1[C@H](S[C@@H]1O[C@H](CO)[C@H](O)[C@H](n2cc(-c3cc(F)c(F)c(F)c3)nn2)[C@H]1O)C1(O)CCC(F)(F)CC1 [Example 2.44.135S., (2S,3R,4S,5R,6R)-2-(((S)-(4,4-Difluoro-1-hydroxycyclohexyl)(4-methylpyridazin-3-yl)methyl)thio)-6-(hydroxymethyl)-4-(4-(3,4,5-trifluorophenyl)-1H-1,2,3-triazol-1-yl)tetrahydro-2H-pyran-3,5-diol] |
| 2530 nM |  | 420 nM |  | CO[C@@H]1[C@@H](n2cc(-c3cc(F)c(F)c(F)c3)nn2)[C@@H](O)[C@@H](CO)O[C@H]1SC(c1c(C)cnn1C)C1(O)CCC(F)(F)CC1 (stereo partly drawn) [Example 2.44.136.I., (2R,3R,4S,5R,6S)-6-(((4,4-Difluoro-1-hydroxycyclohexyl)(1,4-dimethyl-1H-pyrazol-5-yl)methyl)thio)-2-(hydroxymethyl)-5-methoxy-4-(4-(3,4,5-trifluorophenyl)-1H-1,2,3-triazol-1-yl)tetrahydro-2H-pyran-3-ol] |
| 1900 nM |  | 260 nM |  | CO[C@@H]1[C@@H](n2cc(-c3cc(F)c(F)c(F)c3)nn2)[C@@H](O)[C@@H](CO)O[C@H]1S[C@H](c1c(C)cnn1C)C1(O)CCC(F)(F)CC1 [Example 2.44.136R.I., (2R,3R,4S,5R,6S)-6-(((R)-(4,4-Difluoro-1-hydroxycyclohexyl)(1,4-dimethyl-1H-pyrazol-5-yl)methyl)thio)-2-(hydroxymethyl)-5-methoxy-4-(4-(3,4,5-trifluorophenyl)-1H-1,2,3-triazol-1-yl)tetrahydro-2H-pyran-3-ol] |

| Structure (SMILES) | IC50 (human Gal-1 (hGal-1)) | IC50 (human Gal-3 (hGal-3); [1]) | IC50 (human Gal-3 (hGal-3); [2]) | IC50 (human Gal-3 (hGal-3); [3]) |
| --- | --- | --- | --- | --- |
| OC[C@H]1O[C@@H](SC(c2nccnc2Cl)C2(O)CCC(F)(F)CC2)[C@H](O)[C@@H](n2cc(-c3cc(F)c(F)c(F)c3)nn2)[C@H]1O (stereo partly drawn) [Example 2.44.133., (2S,3R,4S,5R,6R)-2-(((3-Chloropyrazin-2-yl)(4,4-difluoro-1-hydroxycyclohexyl)methyl)thio)-6-(hydroxymethyl)-4-(4-(3,4,5-trifluorophenyl)-1H-1,2,3-triazol-1-yl)tetrahydro-2H-pyran-3,5-diol] | 450 nM | 40 nM |  |  |
| OC[C@H]1O[C@@H](S[C@H](c2nccnc2Cl)C2(O)CCC(F)(F)CC2)[C@H](O)[C@@H](n2cc(-c3cc(F)c(F)c(F)c3)nn2)[C@H]1O [Example 2.44.133R., (2S,3R,4S,5R,6R)-2-(((R)-(3-Chloropyrazin-2-yl)(4,4-difluoro-1-hydroxycyclohexyl)methyl)thio)-6-(hydroxymethyl)-4-(4-(3,4,5-trifluorophenyl)-1H-1,2,3-triazol-1-yl)tetrahydro-2H-pyran-3,5-diol] | 160 nM | 20 nM |  |  |
| OC[C@H]1O[C@@H](S[C@@H](c2nccnc2Cl)C2(O)CCC(F)(F)CC2)[C@H](O)[C@@H](n2cc(-c3cc(F)c(F)c(F)c3)nn2)[C@H]1O [Example 2.44.133S., (2S,3R,4S,5R,6R)-2-(((S)-(3-Chloropyrazin-2-yl)(4,4-difluoro-1-hydroxycyclohexyl)methyl)thio)-6-(hydroxymethyl)-4-(4-(3,4,5-trifluorophenyl)-1H-1,2,3-triazol-1-yl)tetrahydro-2H-pyran-3,5-diol] | 15800 nM | 1830 nM |  |  |
